Here are results for 11 compounds from US4803167A, “Monoclonal antidigoxtin antibodies” (The General Hospital Corporation, priority 1982, dated 1989).

Where two headings read alike, the source gives them in different places.

Holding throughout (experiment): Specificity determination, inhibition of [3H]digoxin binding in dextran charcoal RIA
Test [1] has as its system monoclonal anti-digoxin antibody Dig 25-54. Set-up: species or system mouse (A/J). The conditions noted are these: for amount of inhibitor required to give 50% inhibition relative to the amount of digoxin which gave 50% inhibition: inhibition of antibody binding to [3H]digoxin. The method, then:
(§1) The specificity of each antidigoxin antibody for related cardiac glycosides was assessed by the inhibition of binding of antibody in the dextran charcoal radioimmunoassay Smith (1972), supra. To a constant amount of H^3 -digoxin (1.5 ng) in 1 ml of buffer is added different amounts ([…]) of various cardiac glycosides: digoxin, digitoxin, digitoxigenin, digoxigenin, acetyl-strophanthidin, ouabain, deslanoside, and endogenous steroids such as chloresterol, cortisol, androsterone, 17-[beta]-estradiol, progesterone, and testosterone. After 5 minutes, a constant amount of anti-digoxin antibody was added and the assay was continued as described above. Comparison among different antidigoxin antibodies with respect to their fine specificity was made by determining the amount of cardiac glycoside required to achieve 50% inhibition relative to that required for cold digoxin.
(§2) Specificity of monoclonal antibody binding site for related cardiac glycosides was examined by means of hapten inhibition experiments in which the binding of monoclonal antibody to H^3 -digoxin was inhibited by cold digoxin and related cardiac glycosides.

For test [2], the system named is monoclonal anti-digoxin antibody Dig 26-10. Set-up: species or system mouse (A/J). The conditions noted are these: for amount of inhibitor required to give 50% inhibition relative to the amount of digoxin which gave 50% inhibition: inhibition of antibody binding to [3H]digoxin. The method, then: as §1, §2
The test system of test [3] is monoclonal anti-digoxin antibody Dig 26-20. Set-up: species or system mouse (A/J). The conditions noted are these: for amount of inhibitor required to give 50% inhibition relative to the amount of digoxin which gave 50% inhibition: inhibition of antibody binding to [3H]digoxin. As to the method:
as §1, §2

The test system of test [4] is monoclonal anti-digoxin antibody Dig 26-30. Set-up: species or system mouse (A/J). The conditions noted are these: for amount of inhibitor required to give 50% inhibition relative to the amount of digoxin which gave 50% inhibition: inhibition of antibody binding to [3H]digoxin. The method, then: as §1, §2
Test [5] relates to monoclonal anti-digoxin antibody Dig 26-40. Set-up: species or system mouse (A/J). The conditions noted are these: for amount of inhibitor required to give 50% inhibition relative to the amount of digoxin which gave 50% inhibition: inhibition of antibody binding to [3H]digoxin. The method, then:
as §1, §2

The subject of test [6] is monoclonal anti-digoxin antibody Dig 35-20. Set-up: species or system mouse (A/J). As to conditions: for amount of inhibitor required to give 50% inhibition relative to the amount of digoxin which gave 50% inhibition: inhibition of antibody binding to [3H]digoxin. As to the method: as §1, §2
The test system of test [7] is Sheep Anti-Dig Serum (heterogeneous anti-digoxin antiserum). The conditions noted are these: inhibition of antibody binding to [3H]digoxin. The method, then:
Antisera specific for digoxin was prepared in sheep as previously described by Curd et al, Proc. Nat. Acad. Sci. 65: 2401 (1971). High affinity antidigoxin sheep antisera was used in the clinical RIA for digoxin (described below).
as §1, §2

Setting [8] is: highest concentration tested 10^-4 M.

Turning to `C[C@@H]1O[C@@H](O[C@H]2C[C@@H](O)[C@]3(CO)[C@H]4[C@H](O)C[C@]5(C)[C@@H](C6=CC(=O)OC6)CC[C@]5(O)[C@@H]4CC[C@]3(O)C2)[C@H](O)[C@H](O)[C@H]1O` [Ouabain], the “amount of inhibitor required to give 50% inhibition relative to the amount of digoxin which gave 50% inhibition” value in test [1] is listed as more than 100; in test [2], 66; in test [3] it was 53; in test [4] it was 84; in test [5], 78; in test [6] it was 333. The “amount of inhibitor required to give 50% inhibition relative to the amount of digoxin which gave 50% inhibition” value in test [7] is > 10^5.
Consider `C[C@]12CC[C@@H]3c4ccc(O)cc4CC[C@H]3[C@@H]1CC[C@@H]2O` [17-[beta]-estradiol], for which the “inhibition of binding of [3H]digoxin by endogenous steroids” value (“inhibition of binding of [3H]digoxin” for short) in test [1] (setting [8]), in test [2] (setting [8]), in test [3] (setting [8]), in test [4] (setting [8]), in test [5] (setting [8]) and in test [6] (setting [8]) was “No significant inhibition” in each case.
On to `CC(=O)O[C@H]1CC[C@]2(C=O)[C@H]3CC[C@]4(C)[C@@H](C5=CC(=O)OC5)CC[C@]4(O)[C@@H]3CC[C@]2(O)C1` [Acetylstrophanthidin], for which the “amount of inhibitor required to give 50% inhibition relative to the amount of digoxin which gave 50% inhibition” value in test [1] is more than 100; in test [2] it was 1.50; in test [3], 0.70; in test [4] it was 0.85; in test [5] it was 2.30; in test [6], 110.
In the case of `CC(C)CCC[C@@H](C)[C@H]1CC[C@H]2[C@@H]3CC=C4C[C@@H](O)CC[C@]4(C)[C@H]3CC[C@]12C` [cholesterol], the “inhibition of binding of [3H]digoxin” value in test [1] (setting [8]), in test [2] (setting [8]), in test [3] (setting [8]), in test [4] (setting [8]), in test [5] (setting [8]) and in test [6] (setting [8]) was “No significant inhibition” each time.
Turning to 4-androstedione, the “inhibition of binding of [3H]digoxin” value in test [1], in test [2], in test [3], in test [4], in test [5] and in test [6] was “No significant inhibition” each time.
In the case of `C[C@]12CC[C@H](O)C[C@H]1CC[C@@H]1[C@@H]2CC[C@]2(C)[C@@H](C3=CC(=O)OC3)CC[C@]12O` [Digitoxigenin], the “amount of inhibitor required to give 50% inhibition relative to the amount of digoxin which gave 50% inhibition” value is given as 54.0 in test [1]; 3.7 in test [2]; 2.2 in test [3]; 3.6 in test [4]; 4.0 in test [5]; 2.7 in test [6]. The “amount of inhibitor required to give 50% inhibition relative to the amount of digoxin which gave 50% inhibition” value in test [7] is reported as 860.0.
As for `C[C@]12CC[C@H]3[C@@H](CCC4=CC(=O)CC[C@@]43C)[C@@H]1CC[C@@H]2O` [testosterone], the “inhibition of binding of [3H]digoxin” value in test [1], in test [2], in test [3], in test [4], in test [5] and in test [6] was “No significant inhibition” in each case.
Consider `C[C@H]1O[C@@H](O[C@H]2CC[C@@]3(C)[C@H](CC[C@@H]4[C@@H]3C[C@@H](O)[C@]3(C)[C@@H](C5=CC(=O)OC5)CC[C@]43O)C2)C[C@H](O)[C@@H]1O[C@H]1C[C@H](O)[C@H](O[C@H]2C[C@H](O)[C@H](O[C@@H]3O[C@H](CO)[C@@H](O)[C@H](O)[C@H]3O)[C@@H](C)O2)[C@@H](C)O1` [Deslanoside], for which the “amount of inhibitor required to give 50% inhibition relative to the amount of digoxin which gave 50% inhibition” value in test [1] was 4.3; in test [2], 2.6; in test [3], 1.5; in test [4] it was 1.6; in test [5] it was 2.0; in test [6], 3.7.
As for `CC(=O)[C@H]1CC[C@H]2[C@@H]3CCC4=CC(=O)CC[C@]4(C)[C@H]3CC[C@]12C` [progesterone], the “inhibition of binding of [3H]digoxin” value in test [1] (setting [8]), in test [2] (setting [8]), in test [3] (setting [8]), in test [4] (setting [8]), in test [5] (setting [8]) and in test [6] (setting [8]) was “No significant inhibition” each time.
Take `C[C@H]1O[C@@H](O[C@H]2[C@@H](O)C[C@H](O[C@H]3[C@@H](O)C[C@H](O[C@H]4CC[C@@]5(C)[C@H](CC[C@@H]6[C@@H]5CC[C@]5(C)[C@@H](C7=CC(=O)OC7)CC[C@]65O)C4)O[C@@H]3C)O[C@@H]2C)C[C@H](O)[C@@H]1O` [Digitoxin]: the “amount of inhibitor required to give 50% inhibition relative to the amount of digoxin which gave 50% inhibition” value in test [1] came out at 1.8; in test [2], 1.3; in test [3], 1.0; in test [4], 2.6; in test [5], 1.4; in test [6] it was 4.6. For the same compound, the “amount of inhibitor required to give 50% inhibition relative to the amount of digoxin which gave 50% inhibition” value was 152.0 in test [7] and 150 in test [7] (listed as digitoxin).
On to `C[C@]12CCC(=O)C=C1CC[C@@H]1[C@@H]2[C@@H](O)C[C@@]2(C)[C@H]1CC[C@]2(O)C(=O)CO` [cortisol], for which the “inhibition of binding of [3H]digoxin” value in test [1] (setting [8]), in test [2] (setting [8]), in test [3] (setting [8]), in test [4] (setting [8]), in test [5] (setting [8]) and in test [6] (setting [8]) was “No significant inhibition” in each case.
